One assay addresses T1, elastase (Sus scrofa, UniProt P00772).
T1 construct: purchased Sigma; host or cells: swine pancreas
As to the kind of experiment: Determination of elastase-inhibitory activity. Format: biochemical, swine. Particulars: 0.1 μM; read-out: inhibition rate, elastase. The procedure: (§1) The methods for the measurement of inhibitory activities against various proteases and the method for calculating the inhibition rate are as follows.
Determination of elastase-inhibitory activity
Similarly, by following the procedure mentioned above, but employing a 1 mM Tris-HCl buffer (pH 8.5) as a buffer for measurement, a 0.2 μM solution of elastase (derived from swine pancreas, Sigma) in the same buffer as an enzyme solution and a 200 μM solution of 7-(N-succinyl-aranyl-prolyl-aranyl)-4-methylcoumarinamide (Peptide Institute, Inc.) in the same buffer as a substrate solution, each fluorescence (e1, e2 and e3) was determined, respectively.
(§2) Using the fluorescence x1, x2 and x3 measured in the abovementioned manner, the inhibitory rate against various proteases was calculated by the following formula where x stands for b, c, d, e or f: [formula]

Another assay has as its target T2, trypsin (Bos taurus, UniProt P00760).
T2 construct: purchased Sigma; host or cells: bovine pancreas
T2 sequence (P00760 24-246): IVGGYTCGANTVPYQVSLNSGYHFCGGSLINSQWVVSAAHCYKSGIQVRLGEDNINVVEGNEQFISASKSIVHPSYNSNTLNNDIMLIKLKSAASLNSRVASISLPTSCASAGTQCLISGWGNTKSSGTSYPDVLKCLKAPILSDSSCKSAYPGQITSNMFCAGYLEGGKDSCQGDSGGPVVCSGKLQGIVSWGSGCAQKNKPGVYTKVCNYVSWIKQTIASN
As to the kind of experiment: Determination of trypsin-inhibitory activity. The note with it: 0.1 μM; read-out: inhibition rate, trypsin. The class given is biochemical, bovine. The procedure: as §1
Determination of trypsin-inhibitory activity
In the present invention, a 50 mM Tris-HCl buffer (pH 8.0) was employed as a buffer for measurement.
To a mixture of the above-mentioned buffer (850 μl), a solution of the compounds of the present invention in the same buffer (50 μl) and a 0.02 μM solution of trypsin (derived from bovine pancreas, Sigma) in the same buffer (50 μl) was added a 200 μM solution of 7-(prolyl-phenylaranyl-arginyl)-4-methylcoumarinamide (Peptide Institute, Inc.) in the same buffer (50 μl),and the mixture was incubated at 30° C. for 1 hour. The reaction mixture was immersed in ice (0° C.) to terminate the reaction, and the fluorescence (b1) was determined 1 hour later (excitation at 370 nm and emission at 440 nm). Concurrently, there were conducted the experiment wherein, in the system above, the trypsin solution was substituted for a buffer alone, and the experiment wherein the solution of the compounds of the present invention was substituted for a buffer above. Each fluorescence (b2 and b3) was determined respectively.
as §2

In another assay the test system is leucine aminopeptidase. Briefly: Determination of leucine aminopeptidase-inhibitory activity. Format: biochemical, swine. Details: unit not given here. Particulars: 0.1 μM. The procedure: as §1
Determination of leucine aminopeptidase-inhibitory activity
Similarly, by following the procedure mentioned above, but employing a 50 mM Tris-HCl buffer (pH 8.0) as a buffer for measurement, a […] solution of leucine aminopeptidase (derived from swine kidney, Sigma) in the same buffer as an enzyme solution and a 200 μM solution of 7-leucyl-4-methyl-coumarinamide (Peptide Institute, Inc.) in the same buffer as a substrate solution, each fluorescence (d1, d2 and d3) was determined, respectively.
as §2

The target of another assay is T3, prolyl endopeptidase (Rattus norvegicus, UniProt O70196).
T3 construct: prolyl endopeptidase extracted from rat brain; from tissue; host or cells: rat brain
T3 sequence (O70196 whole entry): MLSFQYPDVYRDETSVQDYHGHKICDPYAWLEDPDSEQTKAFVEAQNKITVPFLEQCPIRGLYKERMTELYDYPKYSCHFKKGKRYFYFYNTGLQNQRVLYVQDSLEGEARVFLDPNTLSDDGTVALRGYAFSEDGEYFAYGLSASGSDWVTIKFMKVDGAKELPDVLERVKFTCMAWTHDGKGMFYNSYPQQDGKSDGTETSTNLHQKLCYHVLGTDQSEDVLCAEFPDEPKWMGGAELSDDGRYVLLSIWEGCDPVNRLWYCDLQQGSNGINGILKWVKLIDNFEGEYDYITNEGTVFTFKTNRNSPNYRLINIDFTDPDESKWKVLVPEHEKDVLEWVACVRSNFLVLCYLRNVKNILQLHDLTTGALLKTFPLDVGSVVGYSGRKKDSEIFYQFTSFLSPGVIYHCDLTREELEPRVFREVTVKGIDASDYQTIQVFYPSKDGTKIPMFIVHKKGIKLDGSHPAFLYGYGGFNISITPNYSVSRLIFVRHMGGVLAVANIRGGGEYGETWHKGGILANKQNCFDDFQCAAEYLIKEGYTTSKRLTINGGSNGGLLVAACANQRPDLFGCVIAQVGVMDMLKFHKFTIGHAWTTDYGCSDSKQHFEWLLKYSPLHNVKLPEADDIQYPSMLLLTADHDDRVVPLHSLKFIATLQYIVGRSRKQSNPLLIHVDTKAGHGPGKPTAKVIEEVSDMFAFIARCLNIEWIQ
Briefly: Prolyl endopeptidase-inhibitory activity. The class given is biochemical. The note with it: for inhibition at 0.1 µM: read-out: inhibition rate, prolyl endopeptidase. On the procedure: Prolyl endopeptidase-inhibitory activity
A mixture of a 0.1M potassium sodium phosphate buffer (pH 7.0) (2675 μl), a solution of the compounds of the present invention in a 0.1M potassium sodium phosphate buffer (pH 7.0) (100 μl) and a solution of prolyl endopeptidase extracted from rat brain in a 25 mM sodium phosphate buffer (100 μl) [123 unit/1, pH 6.8, containing 1 mM dithiothreitol and 0.5 mM EDTA, prepared by the method described in J. Neurochem., 35, 527 (1980)]was preincubated at 30° C. for 30 minutes. Thereto was added a 0.2 mM solution of 7-(N-succinyl-glycyl-prolyl)-4-methylcoumarinamide (Peptide Institute, INC.) in a 0.1M potassium sodium phosphate buffer (pH 7.0) (125 μl), and the mixture was incubated at 30° C. for 1 hour. The reaction mixture was immersed in ice (0° C.) to terminate the reaction, and the fluorescence (a1) was determined ten minutes later (excitation at 370 nm and emission at 440 nm). Concurrently, there were conducted the experiment wherein, in the above system, the prolyl endopeptidase solution was substituted for a 25 mM sodium phosphate buffer (pH 6.8, containing 1 mM dithiothreitol and 0.5 mM EDTA) and the experiment wherein the solution of the compounds of the present invention was substituted for a 0.1M potassium sodium phosphate buffer (pH 7.0). Each fluorescence (a2 and a3) was determined respectively [See Tanpakushitsu Kakusan Koso, 29, 127 (1984)]. The prolyl endopeptidase-inhibition rate was calculated by the following formula, and IC50, a concentration of a compound producing 50% inhibition, was estimated by semilogarithmic graph paper. [formula] […]

The target in a further assay is T4, cathepsin B (Bos taurus, UniProt P07688).
T4 construct: purchased Sigma; host or cells: bovine spleen
As to the kind of experiment: Determination of cathepsin B-inhibitory activity. The class given is biochemical, bovine. Particulars: 0.1 μM; read-out: inhibition rate, cathepsin B. The procedure:
as §1
Determination of cathepsin B-inhibitory activity
Similarly, by following the procedure mentioned above, but employing a 100 mM sodium phosphate buffer (pH 6.0; containing 1.33 mM EDTA Na2) as a buffer for measurement, a 0.02 μM solution of cathepsin B (derived from bovine spleen, Sigma) in the same buffer as an enzyme solution and a 200 μM solution of 7-(N-benzyloxycarbonyl-phenylaranyl-arginyl)-4-methylcoumarinamide (Peptide Institute, Inc.) in the same buffer as a substrate solution, each fluorescence (f1, f2 and f3) was determined, respectively.
as §2

The next assay has as its target T5, chymotrypsin (Bos taurus, UniProt P00766).
T5 construct: purchased Sigma; host or cells: bovine pancreas
As to the kind of experiment: Determination of chymotrypsin-inhibitory activity. Format: biochemical, bovine. Particulars: 0.1 μM; read-out: inhibition rate, chymotrypsin. On the procedure: as §1
Determination of chymotrypsin-inhibitory activity
Similarly, by following the procedure mentioned above, but employing a 50 mM Tris-HCl buffer (pH 8.0) as a buffer for measurement, a 0.2 μM solution of chymotrypsin (derived from bovine pancreas, Sigma) in the same buffer as an enzyme solution and a […] solution of 7-(N-succinyl-leucyl-leucyl-valyl-tyrosyl)-4-methylcoumarinamide (Peptide Institute, Inc.) in the same buffer as a substrate solution, each fluorescence (c1, c2 and c3) was determined, respectively.
as §2

Setting [1] is: prolyl endopeptidase extracted from rat brain, pH 7.0, 30° C., read-out: IC50.

Read-outs that look alike come from different tables or passages of the source.

T1 sequence (P00772 27-266): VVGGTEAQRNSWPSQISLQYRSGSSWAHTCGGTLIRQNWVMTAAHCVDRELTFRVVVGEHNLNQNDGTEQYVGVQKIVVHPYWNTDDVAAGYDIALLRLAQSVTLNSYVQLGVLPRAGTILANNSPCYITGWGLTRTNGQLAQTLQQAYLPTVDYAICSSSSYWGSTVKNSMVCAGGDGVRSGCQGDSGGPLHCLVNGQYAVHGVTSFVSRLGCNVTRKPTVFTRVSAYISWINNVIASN

Regarding `O=C(CSc1ccccc1)[C@@H]1CCCN1C(=O)[C@@H]1CCCN1C(=O)OCc1ccccc1` [Compound 1, (2S)-1-(N-Benzyloxycarbonyl-L-prolyl)-2-[(Phenylthio)acetyl]-pyrrolidine], the inhibition (commonly the percentage by which the read-out fell short of the control) at 0.1 µM was determined as 0% on elastase; 0% at trypsin; 90% at prolyl endopeptidase; 0% on cathepsin B; 20% at chymotrypsin. Also, the “inhibition rate, leucine aminopeptidase” value in the assay on leucine aminopeptidase stood at 0. For the same compound, the concentration for half-maximal inhibition (IC50) (in general, the point on the concentration scale where inhibition reaches its midpoint) at prolyl endopeptidase (setting [1]) is 0.3 nM.

In the case of `O=C(C[S+]([O-])c1ccccc1)[C@@H]1CCCN1C(=O)[C@@H]1CCCN1C(=O)OCc1ccccc1` (stereo partly drawn) [Compound 2, (2S)-1-(N-Benzyloxycarbonyl-L-prolyl)-2-[(phenylsulfinyl)-acetyl]pyrrolidine], the inhibition at 0.1 µM on elastase worked out at 0%; on trypsin, 0%; at prolyl endopeptidase, 100%; on cathepsin B it was 0%; on chymotrypsin, 0%. Moreover, the “inhibition rate, leucine aminopeptidase” value in the assay on leucine aminopeptidase was determined as 0. Besides, the IC50 on prolyl endopeptidase (setting [1]) was found to be 1.2 nM.

For the compound `O=C(CS(=O)(=O)c1ccccc1)[C@@H]1CCCN1C(=O)[C@@H]1CCCN1C(=O)OCc1ccccc1` [Compound 3, (2S)-1-(N-Benzyloxycarbonyl-L-prolyl)-2-[(phenylsulfonyl)-acetyl]pyrrolidine], the inhibition at 0.1 µM was 0% on elastase; 0% at trypsin; 91% at prolyl endopeptidase; 0% on cathepsin B; 0% at chymotrypsin. Besides, in the assay with leucine aminopeptidase, the “inhibition rate, leucine aminopeptidase” value is listed as 0. On prolyl endopeptidase (setting [1]), the half-inhibitory concentration (IC50) was found to be 12 nM.

In the case of `O=C(COc1ccccc1)[C@@H]1CCCN1C(=O)[C@@H]1CCCN1C(=O)OCc1ccccc1` [Compound 4, (2S)-1-(N-Benzyloxycarbonyl-L-prolyl)-2-(phenoxyacetyl)-pyrrolidine], the inhibition at 0.1 µM at elastase came to 0%; on trypsin, 0%; on prolyl endopeptidase, 98%; on cathepsin B, 0%; on chymotrypsin, 0%. Further, the “inhibition rate, leucine aminopeptidase” value in the assay with leucine aminopeptidase is 0. Also, the 50% inhibitory concentration (IC50) on prolyl endopeptidase (setting [1]) was determined as 0.3 nM.

On to `O=C(C[S+]([O-])c1ccccc1)[C@@H]1CCCN1C(=O)[C@@H]1CCCN1C(=O)CCCc1ccccc1` (stereo partly drawn) [Compound 5, (2S)-1-[N-(4-Phenylbutyryl)-L-prolyl]-2-[(phenylsulfinyl)-acetyl]pyrrolidine], for which the inhibition at 0.1 µM on elastase worked out at 0%; on trypsin, 0%; on prolyl endopeptidase it was 98%; on cathepsin B, 0%; on chymotrypsin it was 0%. The “inhibition rate, leucine aminopeptidase” value with leucine aminopeptidase amounted to 0. For the same compound, on prolyl endopeptidase (setting [1]), the half-inhibitory concentration (IC50) worked out at 0.3 nM.

As for `COc1ccc([S+]([O-])CC(=O)[C@@H]2CCCN2C(=O)[C@@H]2CCCN2C(=O)OCc2ccccc2)cc1` (stereo partly drawn) [Compound 6, (2S)-1-(N-Benzyloxycarbonyl-L-prolyl)-2-[(4-methoxyphenylsulfinyl)acetyl]pyrrolidine], the inhibition at 0.1 µM on elastase came to 0%; at trypsin, 0%; on prolyl endopeptidase, 98%; on cathepsin B, 20%; at chymotrypsin, 0%. Further, the “inhibition rate, leucine aminopeptidase” value in the assay with leucine aminopeptidase came out at 0. The IC50 on prolyl endopeptidase (setting [1]) was 0.65 nM.

With `O=C(C[S+]([O-])c1ccc([N+](=O)[O-])cc1)[C@@H]1CCCN1C(=O)[C@@H]1CCCN1C(=O)OCc1ccccc1` (stereo partly drawn) [Compound 7, (2S)-1-(N-Benzyloxycarbonyl-L-prolyl)-2-[(4-nitrophenylsulfinyl)acetyl]pyrrolidine], the inhibition at 0.1 µM at elastase was determined as 0%; at trypsin it was 0%; on prolyl endopeptidase, 97%; on cathepsin B it was 20%; at chymotrypsin it was 0%. Also, the “inhibition rate, leucine aminopeptidase” value with leucine aminopeptidase is given as 0. Further, the IC50 at prolyl endopeptidase (setting [1]) came to 1 nM.

In the case of `CC(C)[S+]([O-])CC(=O)[C@@H]1CCCN1C(=O)[C@@H]1CCCN1C(=O)OCc1ccccc1` (stereo partly drawn) [Compound 8, (2S)-1-(N-Benzyloxycarbonyl-L-prolyl)-2-[(isopropylsulfinyl)-acetyl]pyrrolidine], the inhibition at 0.1 µM on elastase was 0%; at trypsin, 0%; on prolyl endopeptidase, 92%; at cathepsin B it was 0%; at chymotrypsin, 0%. The “inhibition rate, leucine aminopeptidase” value with leucine aminopeptidase came out at 0. The half-inhibitory concentration (IC50) on prolyl endopeptidase (setting [1]) is 3 nM.

For the compound `O=C(C[S@+]([O-])c1ccccc1)[C@@H]1CCCN1C(=O)[C@@H]1CCCN1C(=O)OCc1ccccc1` [Compound 9, (2S)-1-(N-Benzyloxycarbonyl-L-prolyl)-2-{[(S)-phenylsulfinyl]-acetyl}pyrrolidine], the inhibition at 0.1 µM at elastase worked out at 0%; on trypsin, 0%; at prolyl endopeptidase, 98%; at cathepsin B it was 0%; on chymotrypsin it was 0%. In the assay with leucine aminopeptidase, the “inhibition rate, leucine aminopeptidase” value is on record as 0. The 50% inhibitory concentration (IC50) on prolyl endopeptidase (setting [1]) was found to be 0.2 nM.

As to `O=C(COc1ccc2c(c1)OCO2)[C@@H]1CCCN1C(=O)[C@@H]1CCCN1C(=O)NCc1ccccc1` [Compound 33, (2S)-1-[N-(Benzylaminocarbonyl)-L-prolyl]-2-{[(3,4-methylenedioxy)phenoxy]acetyl} pyrrolidine], the inhibition at 0.1 µM at elastase came out at 0%; on trypsin, 0%; on prolyl endopeptidase it was 96%; at cathepsin B it was 0%; at chymotrypsin, 0%. 1 nM corresponded to half-maximal inhibition at prolyl endopeptidase (IC50).

(Values after patent US5506256A, “Proline derivatives possessing prolyl endopeptidase-inhibitory activity” (Yoshitomi Pharmaceutical Industries, Ltd., priority 1990, dated 1996).)
